Molecules are shown by their SMILES. pIC50: −log10 of the molar value.

The target of one test is HCV NS5B RNA-dependent RNA polymerase (Hepatitis C virus genotype 1b, UniProt P26663). The test can be described thus: In vitro RNA-dependent RNA polymerase assay (Assay 1), polyA/oligo dT, TCA precipitation. The format is biochemical.
Chain of HCV NS5B RNA-dependent RNA polymerase (P26663 2420-3010 limits assumed): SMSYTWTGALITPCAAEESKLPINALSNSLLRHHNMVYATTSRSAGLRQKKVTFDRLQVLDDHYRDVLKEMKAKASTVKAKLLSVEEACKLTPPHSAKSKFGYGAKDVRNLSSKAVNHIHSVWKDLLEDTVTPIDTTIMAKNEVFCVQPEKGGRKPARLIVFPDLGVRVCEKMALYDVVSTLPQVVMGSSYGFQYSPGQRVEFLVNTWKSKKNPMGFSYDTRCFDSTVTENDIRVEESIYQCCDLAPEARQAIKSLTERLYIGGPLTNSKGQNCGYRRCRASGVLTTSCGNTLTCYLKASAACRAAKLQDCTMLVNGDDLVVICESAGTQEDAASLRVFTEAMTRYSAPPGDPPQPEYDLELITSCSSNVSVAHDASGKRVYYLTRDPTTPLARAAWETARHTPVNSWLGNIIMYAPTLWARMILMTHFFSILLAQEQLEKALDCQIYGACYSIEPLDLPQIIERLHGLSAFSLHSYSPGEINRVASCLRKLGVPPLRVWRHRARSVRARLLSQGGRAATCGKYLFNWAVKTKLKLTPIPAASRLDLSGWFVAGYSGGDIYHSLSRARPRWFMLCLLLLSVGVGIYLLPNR
Details: not given
As to the method:
Purification of Recombinant NS5B Using Fast Protein Liquid Chromatography (FPLC):
Soluble NS5B protein in the S3 fraction was diluted to lower the NaCl concentration to 300 mM, then it incubated batchwise with DEAE sepharose beads (Amersham-Pharmacia) for 2 hrs at 4° C., as described by Behrens et al. (1996). Unbound material was cleared by centrifugation for 15 min at 4° C., at 25,000 rpm using a SW41 rotor (Beckman). The supernatant was further diluted to lower the NaCl concentration to 200 mM and subsequently loaded, with a flow rate of 1 ml/min, on a 5 ml HiTrap® heparin column (Amersham-Pharmacia) connected to an FPLC® system (Amersham-Pharmacia). Bound proteins were eluted in 1 ml fractions, using a continuous NaCl gradient of 0.2 to 1 M, over a 25 ml volume. NS5B-containing fractions were identified by sodium dodecyl sulfate polyacrylamide gel electrophoresis (SDS-PAGE), followed by western blotting using the anti-NS5B antiserum at a dilution of 1:2000. Positive fractions were pooled and the elution buffer was exchanged against a 50 mM NaPO4 pH 7.0, 20% glycerol, 0.5% triton X-100 and 10 mM DTT, using a PD-10 column (Amersham-Pharmacia). The sample was then loaded onto a 1 ml HiTrap® SP column (Amersham-Pharmacia), with a flow rate of 0.1 ml/min. Bound proteins were eluted using a continuous 0 to 1 M NaCl gradient over a 15 ml volume. Eluted fractions were analyzed by SDS-PAGE and western blotting. Alternatively, proteins were visualized, following SDS-PAGE, by silver staining using the Silver Stain Plus kit (BioRad) as described by the manufacturer. […]
In vitro RNA-dependent RNA Polymerase Assays Used to Evaluate Biaryl Analogues (Assay 1):
RdRp assays were conducted using the homopolymeric template/primer polyA/oligo dT. All RdRp reactions were performed in a total volume of 50 μl, and in a basic buffer consisting of 20 mM Tris-HCl pH 7.5, 1 mM DTT, 50 mM NaCl, 5 mM MgCl2, 0.5 μCi […] (3000 Ci/mmol), 15 μM cold UTP and 20 U RNasin (Promega). Standard HCV RdRp reactions contained 200 ng of purified NS5B protein. PolyA RNAs (Amersham-Pharmacia) was resuspended at 400 ng/μl. The primer oligodT15 (Canadian life technologies) was diluted to a concentration of […] (7.6 ng/μl). Templates and primers were mixed volume to volume, denatured at 95° C. for 5 min and annealed at 37° C. for 10 min. Following a two hour incubation at 22° C., reactions were stopped by the addition of 100 μg of sonicated salmon sperm DNA (Life Technologies) and 1 ml of 10% trichloroacetic acid-0.5% tetrasodium pyrophosphate (TCA-PPi). Nucleic acids were precipitated at 4° C. for 30 min after which samples were filtered on GF/C glass microfiber filters (Millipore). Membranes were subsequently washed with 25 ml of a 1% TCA-0.1% PPi solution, then air dried. Incorporated radioactivity was quantified using a liquid scintillation counter (1450-Microbeta, Wallac). Results are shown in Table 1, in the column indicated as Assay 1.
Consider `O=C(O)[C@H](Cc1ccccc1)N(Cc1ccc(Br)s1)C(=O)c1ccc(Cl)cc1Cl` [compound #82, (2s)-2-[(5-Bromo-thiophen-2-ylmethyl)-(2,4-dichloro-benzoyl)-amino]-3-phenyl-propionic acid], for which the pIC50 is greater than 5.30.
The same measure, in the same setting: with `O=C(O)[C@H](Cc1ccccc1)N(Cc1ccc(-c2cc3ccccc3o2)s1)C(=O)c1ccc(Cl)cc1Cl` [compound #85, (2s)-2-[(5-Benzofuran-2-yl-thiophen-2-ylmethyl)-(2,4-dichloro-benzoyl)-amino]-3-phenyl-propionic acid] the figure was greater than 5.30.

Still in this test, the particulars now being: polyA/oligo dT template/primer, 200 ng NS5B, 2 h at 22° C.; read-out: RNA pol Assay 1 IC50 (μm).
On to `O=C(O)[C@H](Cc1ccccc1)N(Cc1ccc(-c2ccc(Br)cc2)o1)C(=O)c1ccc(Cl)cc1Cl` [compound #59, (2s)-2-[[5-(4-Bromo-phenyl)-furan-2-ylmethyl]-(2,4-dichloro-benzoyl)-amino]-3-phenyl-propionic acid], for which the negative-log IC50 (pIC50) is greater than 5.30.
On to `O=C(O)[C@H](Cc1ccccc1)N(Cc1ccc(-c2ccccc2Cl)o1)C(=O)c1ccc(Cl)cc1Cl` [compound #60, (2s)-2-[[5-(2-Chloro-phenyl)-furan-2-ylmethyl]-(2,4-dichloro-benzoyl)-amino]-3-phenyl-propionic acid], for which the negative-log IC50 (pIC50) is greater than 5.30.
The same measure, in the same setting: next, `O=C(O)[C@H](Cc1ccccc1)N(Cc1ccc(-c2cc(C(F)(F)F)ccc2Cl)o1)C(=O)c1ccc(Cl)cc1Cl` [compound #61, (2s)-2-[[5-(2-Chloro-5-trifluoromethyl-phenyl)-furan-2-ylmethyl]-(2,4-dichloro-benzoyl)-amino]-3-phenyl-propionic acid]: greater than 5.30; `O=C(O)[C@H](Cc1ccccc1)N(Cc1ccc(-c2ccccc2[N+](=O)[O-])o1)C(=O)c1ccc(Cl)cc1Cl` [compound #62, (2s)-2-{(2,4-Dichloro-benzoyl)-[5-(2-nitro-phenyl)-furan-2-ylmethyl]-amino}-3-phenyl-propionic acid]: greater than 5.30.
Regarding `O=C(O)C[C@H](Cc1ccccc1)N(Cc1ccc(-c2cccc(C(F)(F)F)c2)o1)C(=O)c1ccc(Cl)cc1Cl` [compound #63, (3s)-3-{(2,4-Dichloro-benzoyl)-[5-(3-trifluoromethyl-phenyl)-furan-2-ylmethyl]-amino}-4-phenyl-butyric acid], the negative logarithm of the IC50 (pIC50) was greater than 5.30.
Still for that read-out and setting: with `O=C(O)[C@H](Cc1ccccc1)N(Cc1ccc(-c2ccc(Cl)c(Cl)c2)o1)C(=O)c1ccc(Cl)cc1Cl` [compound #65, (2s)-2-{(2,4-Dichloro-benzoyl)-[5-(3,4-dichloro-phenyl)-furan-2-ylmethyl]-amino}-3-phenyl-propionic acid] the figure was greater than 5.30.
Take `O=C(O)[C@H](Cc1ccccc1)N(Cc1ccc(-c2ccc(Cl)cc2Cl)o1)C(=O)c1ccc(Cl)cc1Cl` [compound #67, (2s)-2-{(2,4-Dichloro-benzoyl)-[5-(2,4-dichloro-phenyl)-furan-2-ylmethyl]-amino}-3-phenyl-propionic acid]: the pIC50 was greater than 5.30.
On to `O=C(O)[C@H](Cc1ccccc1)N(Cc1ccc(Br)o1)C(=O)c1ccc(Cl)cc1Br` [compound #68, (2s)-2-[(2-Bromo-4-chloro-benzoyl)-(5-bromo-furan-2-ylmethyl)-amino]-3-phenyl-propionic acid], for which the negative logarithm of the IC50 (pIC50) was greater than 5.30.
On the same count and under the same terms, next, `O=C(O)[C@H](Cc1ccccc1)N(Cc1ccc(-c2ccc(F)c(Cl)c2)o1)C(=O)c1ccc(Cl)cc1Cl` [compound #69, (2s)-2-[[5-(3-Chloro-4-fluoro-phenyl)-furan-2-ylmethyl]-(2,4-dichloro-benzoyl)-amino]-3-phenyl-propionic acid]: greater than 5.30; `O=C(O)[C@H](Cc1ccccc1)N(Cc1ccc(-c2ccc(Cl)c(F)c2)o1)C(=O)c1ccc(Cl)cc1Cl` [compound #70, (2s)-2-[[5-(4-Chloro-3-fluoro-phenyl)-furan-2-ylmethyl]-(2,4-dichloro-benzoyl)-amino]-3-phenyl-propionic acid]: greater than 5.30; `O=C(O)[C@H](Cc1ccccc1)N(Cc1ccc(Br)o1)C(=O)c1ccc(Cl)cc1I` [compound #71, (2s)-2-[(5-Bromo-furan-2-ylmethyl)-(4-chloro-2-iodo-benzoyl)-amino]-3-phenyl-propionic acid]: greater than 5.30.
With `CCOC(=O)c1ccccc1-c1ccc(CN(C(=O)c2ccc(Cl)cc2Cl)[C@@H](Cc2ccccc2)C(=O)O)o1` [compound #72, (2s)-2-(5-{[(1s-1-Carboxy-2-phenyl-ethyl)-(2,4-dichloro-benzoyl)-amino]-methyl}-furan-2-yl)-benzoic acid ethyl ester], the pIC50 was greater than 5.30.
Still for that read-out and setting: next, `O=C(O)c1ccccc1-c1ccc(CN(C(=O)c2ccc(Cl)cc2Cl)[C@@H](Cc2ccccc2)C(=O)O)o1` [compound #73, (2s)-2-(5-{[(1-Carboxy-2-phenyl-ethyl)-(2,4-dichloro-benzoyl)-amino]-methyl}-furan-2-yl)-benzoic acid]: greater than 5.30.
The same measure, in the same setting: with `O=C(O)[C@H](Cc1ccccc1)N(Cc1ccc(-c2nccs2)o1)C(=O)c1ccc(Cl)cc1Cl` [compound #74, (2s)-2-[(2,4-Dichloro-benzoyl)-(5-thiazol-2-yl-furan-2-ylmethyl)-amino]-3-phenyl-propionic acid] the figure was greater than 5.30; with `O=C(O)[C@H](Cc1ccccc1)N(Cc1ccco1)C(=O)c1ccc(Cl)cc1Cl` [compound #75, (2s)-2-[(2,4-Dichloro-benzoyl)-furan-2-ylmethyl-amino]-3-phenyl-propionic acid], 4.70 to 5.30.
Still for that read-out and setting: next, `O=C(O)c1cccc(-c2ccc(CN(C(=O)c3ccc(Cl)cc3Cl)[C@@H](Cc3ccccc3)C(=O)O)o2)c1` [compound #76, (2s)-3-(5-{[(1s-1-Carboxy-2-phenyl-ethyl)-(2,4-dichloro-benzoyl)-amino]-methyl}-furan-2-yl)-benzoic acid]: greater than 5.30; `O=C(O)c1ccc(-c2ccc(CN(C(=O)c3ccc(Cl)cc3Cl)[C@@H](Cc3ccccc3)C(=O)O)o2)cc1` [compound #77, (2s)-4-(5-{[(1s-1-Carboxy-2-phenyl-ethyl)-(2,4-dichloro-benzoyl)-amino]-methyl}-furan-2-yl)-benzoic acid]: greater than 5.30.
With `O=C(O)[C@H](Cc1ccccc1)N(Cc1ccc(-c2cccc(C(F)(F)F)c2)o1)C(=O)c1ccc(Cl)cc1Br` [compound #78, (2s)-2-{(2-Bromo-4-chloro-benzoyl)-[5-(3-trifluoromethyl-phenyl)-furan-2-ylmethyl]-amino}-3-phenyl-propionic acid], the pIC50 is greater than 5.30.
Same read-out and setting: with `O=C(O)[C@H](Cc1ccccc1)N(Cc1ccc(-c2cc(F)cc(F)c2)o1)C(=O)c1ccc(Cl)cc1Cl` [compound #79, (2s)-2-{(2,4-Dichloro-benzoyl)-[5-(3,5-difluoro-phenyl)-furan-2-ylmethyl]-amino}-3-phenyl-propionic acid] the figure was greater than 5.30; with `Cc1cccc(-c2ccc(CN(C(=O)c3ccc(Cl)cc3Cl)[C@@H](Cc3ccccc3)C(=O)O)o2)c1` [compound #80, (2s)-2-[(2,4-Dichloro-benzoyl)-(5-m-tolyl-furan-2-ylmethyl)-amino]-3-phenyl-propionic acid], greater than 5.30; with `O=C(O)[C@H](Cc1ccccc1)N(Cc1ccc(-c2cccc(F)c2)o1)C(=O)c1ccc(Cl)cc1Cl` [compound #81, (2s)-2-{(2,4-Dichloro-benzoyl)-[5-(3-fluoro-phenyl)-furan-2-ylmethyl]-amino}-3-phenyl-propionic acid], greater than 5.30.
The same measure, in the same setting: with `O=C(O)c1ccc(-c2ccc(CN(C(=O)c3ccc(Cl)cc3Cl)[C@@H](Cc3ccccc3)C(=O)O)s2)cc1` [compound #83, (2s)-4-(5-{[(1s-1-Carboxy-2-phenyl-ethyl)-(2,4-dichloro-benzoyl)-amino]-methyl}-thiophen-2-yl)-benzoic acid] the figure was greater than 5.30; with `COC(=O)c1ccc(-c2ccc(CN(C(=O)c3ccc(Cl)cc3Cl)[C@@H](Cc3ccccc3)C(=O)O)s2)cc1` [compound #84, (2s)-4-(5-{[(1-Carboxy-2-phenyl-ethyl)-(2,4-dichloro-benzoyl)-amino]-methyl}-thiophen-2-yl)-benzoic acid methyl ester], greater than 5.30.

By pIC50 is commonly meant −log10 of the IC50, conventionally taken in molar units.

The values are drawn from patent publication US20030229053A1, “Compounds and methods for the treatment or prevention of flavivirus infections” (Shire BioChem Inc., priority 2001, published 2003).
